# Laboratory results reported in PubChem BioAssay (NCI).
# Several values for one entry are separate records, joined by “and”; a condition that tells them apart may be missing. Equal entries are not always repeated.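 Compound exposure: 48 hours, 5 concentrations, 96-well plates. At the GI50, growth is halved. TGI denotes the concentration required for complete inhibition of growth.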
# How the values were obtained:
# Experiment in all cases: NCI tumour cell line growth inhibition, 48 h
# [1] = test system: EKVX NSCLC
# [2] = test system: MDA-MB-435
# [3] = test system: SK-MEL-28 melanoma
# [4] = test system: UACC-62 melanoma
# [5] = test system: IGROV1 ovarian
# [6] = test system: PC-3 prostate
# [7] = test system: UO-31 renal
# [8] = test system: NCI-H460 lung
# [9] = test system: ACHN renal
# [10] = test system: HCT-15 colon
Structure (SMILES),GI50 [1],TGI [1] [µM],GI50 [2],TGI [2],GI50 [3],TGI [3],GI50 [4],TGI [4],GI50 [5],TGI [5] [µM],GI50 [6],TGI [6],GI50 [7],TGI [7] [µM],GI50 [8],TGI [8],GI50 [9],TGI [9] [µM],GI50 [10],TGI [10] [µM]
COc1cc(/C=C/C(=O)/C=C/c2cc3ccc(Cl)cc3n(Cc3ccccc3)c2=O)ccc1O,2.11 µM,4.67,0.862 µM,4.32 µM,1.85 µM,5.53 µM,1.29 µM,3.71 µM,1.74 µM,4.53,1.92 µM,5.6 µM,1.34 µM,2.64,1.89 µM,4.27 µM,1.33 µM,2.62,1.24 µM,4.01
O=C(/C=C/C(Cl)(Cl)Cl)Nc1ccc(Cl)cc1,–,13.7,–,12.4 µM,–,35.1 µM,–,21.2 µM,–,1.82,–,26.5 µM,–,1.91,–,40 µM,–,6.37,–,11.4
O=S(=O)(c1ccccc1)N1CN2CN(C1)CN(S(=O)(=O)c1ccccc1)C2,–,> 100,–,> 100 µM,–,> 100 µM,–,> 100 µM,–,> 100,–,> 100 µM,–,> 100,–,> 100 µM,–,> 100,–,> 100
Cc1ccc(-c2nc(N3CCNCC3)c3oc(-c4ccccc4)nc3n2)cc1,3.94 µM,> 100,1.76 µM,3.22 µM,1.91 µM,3.39 µM,1.74 µM,3.19 µM,1.87 µM,3.64,1.7 µM,3.19 µM,1.43 µM,2.78,1.83 µM,3.52 µM,1.75 µM,3.12,1.69 µM,3.2
CCOC(=O)/C(C#N)=C1\SS/C(=C(/C#N)C(=O)OCC)S1,19.6 µM,50.4,17.1 µM,33.1 µM,18.9 µM,34.1 µM,15.8 µM,32.6 µM,14.2 µM,33,19.7 µM,40.7 µM,13.2 µM,26.1,32 µM,> 100 µM,14.8 µM,29.5,18 µM,61.4
N#Cc1ccccc1C#C/C=C\C#CC#C/C=C\C#Cc1ccccc1C#N,16.5 µM,> 100,8.49 µM,26.4 µM,10.6 µM,49.6 µM,14.7 µM,40.6 µM,15 µM,91.6,19.6 µM,> 100 µM,21.8 µM,> 100,41.3 µM,> 100 µM,7.39 µM,37.8,12.7 µM,> 100
CCCCN=C(N)c1ccc(N2CCCN(c3ccc(C(N)=NCCCC)cc3)CC2)cc1,10.6 µM,> 100,14.8 µM,> 96.6 µM,31.2 µM,> 100 µM,7.58 µM,27.5 µM,24.5 µM,> 85.9,11.5 µM,> 100 µM,> 66.1 µM,> 100,4.15 µM,97.6 µM,> 21.9 µM,> 100,> 100 µM,> 100
ClCc1ccc(Cn2cnc3c(Cl)ncnc32)cc1,9.68 µM,19.5,13 µM,23.3 µM,> 28.1 µM,> 55.7 µM,9.76 µM,19.5 µM,13.6 µM,42,18 µM,56.3 µM,–,> 21.5,1.34 µM,15.6 µM,4.04 µM,11.5,10.6 µM,> 36.7
COc1ccc(Cn2cc3c(c2)-c2oncc2CC3)cc1OC,0.233 µM,> 33.7,0.0774 µM,0.235 µM,0.326 µM,> 50 µM,0.273 µM,> 50 µM,0.391 µM,> 46.3,0.395 µM,> 50 µM,0.272 µM,23.8,0.161 µM,0.89 µM,0.325 µM,> 50,0.214 µM,> 50
Cc1ccc(NC(=O)Nc2c(Cl)cccc2Cl)cn1,3.04 µM,> 100,1.96 µM,4.69 µM,58.2 µM,> 100 µM,5.76 µM,> 100 µM,8.14 µM,> 100,25.2 µM,> 100 µM,47 µM,> 100,4.91 µM,36.1 µM,51.5 µM,> 100,5.61 µM,> 100
O=Cc1c(-c2ccccc2)[nH]c2ccccc2c1=O,–,> 100,–,88.1 µM,–,> 100 µM,–,> 100 µM,–,> 100,–,> 100 µM,–,> 100,–,> 100 µM,–,> 100,–,> 100
Nc1cc(C(F)(F)F)c(-c2cc(N3CCOCC3)nc(N3CCOCC3)n2)cn1,0.721 µM and 1.22 µM,–,0.275 µM and 0.29 µM,1.03 µM and 1.32 µM,0.555 µM and 0.536 µM,5.14 µM and 4.38 µM,0.318 µM and 0.375 µM,1.99 µM and 2.92 µM,0.227 µM and 0.28 µM,–,0.44 µM and 0.49 µM,> 9.49 µM and 6.09 µM,0.309 µM and 0.527 µM,–,0.646 µM and 0.451 µM,7.27 µM and 12.4 µM,0.906 µM and 1.14 µM,> 100,0.523 µM and 0.826 µM,> 41.1
COc1ccc(C(=O)O[C@H]2[C@H](O[C@H]3[C@@H](O)COC(O[C@H]4C[C@H]5[C@@H]6CC=C7C[C@@H](O)CC[C@]7(C)[C@H]6CC[C@]5(C)[C@H]4[C@H](C)C(=O)CCC(C)C)[C@@H]3OC(C)=O)OC[C@@H](O)[C@@H]2O)c(C)c1 (stereo not given in full),1.26 µM,26.9,< 0.01 µM,0.0774 µM,< 0.01 µM,< 0.01 µM,< 0.01 µM,< 0.01 µM,0.0723 µM,48.9,< 0.01 µM,2.14 µM,< 0.01 µM,0.0335,< 0.01 µM,3.23 µM,0.0312 µM,38.9,0.0332 µM,2.05
CC[C@]1(O)CC2CN(CCc3c([nH]c4ccccc34)[C@@](C(=O)OC)(c3cc4c(cc3OC)N(C=O)[C@H]3[C@@](O)(C(=O)OC)[C@H](OC(C)=O)[C@]5(CC)C=CCN6CC[C@]43[C@@H]65)C2)C1 (stereo not given in full),> 30.8 µM,> 50,< 0.005 µM,< 0.005 µM,< 0.005 µM,> 50 µM,< 0.005 µM,> 50 µM,0.0334 µM,> 50,0.0059 µM,> 50 µM,0.519 µM,> 50,< 0.005 µM,> 50 µM,0.235 µM,> 50,–,> 50
COc1ccc2nc(-c3ccccc3)cc(Nc3cccc(C(C)=O)c3)c2c1,13.6 µM,34.3,4.51 µM,17.1 µM,12.4 µM,43.4 µM,15.4 µM,31.4 µM,20.6 µM,> 100,21.5 µM,50.6 µM,22.8 µM,> 100,6.38 µM,40.7 µM,5.78 µM,22.5,4.93 µM,22.1
Cc1ccc(-c2nc3cc(Cl)c(Cl)cc3nc2C#N)cc1,> 100 µM,> 100,> 100 µM,> 100 µM,> 100 µM,> 100 µM,> 100 µM,> 100 µM,> 100 µM,> 100,> 100 µM,> 100 µM,> 100 µM,> 100,> 100 µM,> 100 µM,39 µM,> 100,> 100 µM,> 100
Cc1ccc(/C=C/c2c(C(=O)/C=C/c3ccc(Cl)cc3)c(C)nc3ccccc23)cc1,1.86 µM,4.53,2.05 µM,4.22 µM,1.84 µM,3.41 µM,1.75 µM,3.72 µM,1.03 µM,2.38,2.2 µM,6.42 µM,1.16 µM,2.38,1.73 µM,3.49 µM,1.54 µM,2.88,1.45 µM,3.97
